Measured values reported in patent US20070104648A1, “Compositions, methods of preparing amino acids, and nuclear magnetic resonance spectroscopy” (Glyconix Corporation, priority 2005, published 2007).

Assays:
[1] = physiological pH; cited from earlier work
[2] = Binding constants (pK) of L-p-BPA carbohydrate/polyol complexes by 1H-NMR integration of aromatic protons; assay type: physicochemical; conditions: 1H-NMR in D2O buffered to physiological pH (7.4); free L-p-BPA vs complex aromatic protons; three concentrations
Excerpt: For fructose and sorbose, or when a large excess of another carbohydrate or polyol is used, the p-BPA remains in solution at a pH of 7.4, and approximately 90% of the p-BPA is present as its sodium carboxylate, with the remainder as its free acid. A large excess of carbohydrate or polyol is preferred when pK is small; however, for complexes with a pK>about 3 a large excess in not need. The ratio of free p-BPA to p-BPA:carbohydrate complex can be determined by integration of the aromatic protons resonances (p-BPA, 7.73 and 7.33 ppm; p-BPA-carbohydrate complex, 7.5 and 7.2 ppm) in the 1H-NMR spectrum using D2O buffered to physiological pH as the solvent. For example, L-p-boronophenylalanine fructose complex has a pK of 3.2 while the meso-erythitol complex has a pK of 1.0, the threitol complex has a pK of 1.3, the adonitol complex has a pK of 1.7, the arabitol complex has a pK of 2.3, the rhamnitol complex has a pK of 2.3, the xylitol complex has a pK of 2.5, the talitol complex has pK of 2.4, the dulcitol complex has a pK of 2.7, the mannitol complex has a pK of 2.7, the 1-aminodulcitol complex has a pK of 2.9, the sorbitol complex has a pK of 3.2, the 1-aminosorbitol complex has a pK of 3.4, the isomaltitol complex has a pK of 3.4, the cellobiitol complex has a pK of 3.5, the lactitol complex has a pK of 3.7, the maltitol complex has a pK of 3.9, the volemitol complex has a pK of 2.9, the perseitol complex has a pK of 3.1, the glucoheptitol complex has a pK of 3.9, and the alpha,alpha-glucooctitol complex has a pK of 4.1.
L-p-Boronophenylalanine-polyol or -aminopolyol complexes are prepared by combining 0.5 mM of alpha-deuterated or alpha-hydrogenated L-p-BPA with between 1.00 and 1.05 equivalents of complexing agent (with the exception of poorly complexing polyols and carbohydrates, in which up to 4.3 equivalents of polyol or carbohydrates are used) in 2 mL of water. One equivalent of NaOH (1 mL of 0.5 M) is then added and the slurry gently warmed if needed in order to dissolve all solids. The pH is then monitored and reduced to between 7.5 and 7.3 by the addition of Dowex50WX4-50 ion exchange resin. The clear solution is then passed through a 0.2 μm syringe filter and then freeze-dried to constant weight. ^1H and ^13C NMR spectra are recorded on a GE 300 MHz FT-NMR spectrometer with D2O buffered at 7.4 [Bates, R G, Bower, V E. 1956. Alkaline solutions for pH control. Anal. Chem. 28:1322-1324] as the solvent. The binding constants are calculated at three different concentrations by integration of the free L-p-BPA aromatic protons (7.73 and 7.33 ppm) compared with those of the L-p-BPA complexes (7.5 and 7.2 ppm). Spectra of the 1:1 complexes are reported.

Row | pK of the p-BPA:carbohydrate/polyol complex (binding constant) [2] | Compound | water solubility [1]
1 | – | N[C@@H](Cc1ccc(B(O)O)cc1)C(=O)O [BPA, para-boronophenylalanine] | poor water solubility
2 | 3.2 | L-p-boronophenylalanine fructose complex [reference compound] | –
3 | 2.9 | L-p-boronophenylalanine-aminodulcitol complex [1-aminodulcitol complex] | –
4 | 3.4 | L-p-boronophenylalanine-aminosorbitol complex [1-aminosorbitol complex] | –
5 | 3.5 | L-p-boronophenylalanine-cellobiitol complex | –
6 | 2.7 | L-p-boronophenylalanine-dulcitol complex | –
7 | 3.4 | L-p-boronophenylalanine-isomaltitol complex | –
8 | 3.7 | L-p-boronophenylalanine-lactitol complex | –
9 | 3.9 | L-p-boronophenylalanine-maltitol complex | –
10 | 2.7 | L-p-boronophenylalanine-mannitol complex | –
11 | 3.1 | L-p-boronophenylalanine-persietol complex [perseitol complex] | –
12 | 2.3 | L-p-boronophenylalanine-rhamnitol complex | –
13 | 3.2 | L-p-boronophenylalanine-sorbitol complex | –
14 | 2.9 | L-p-boronophenylalanine-volemitol complex | –
15 | 2.5 | L-p-boronophenylalanine-xylitol complex | –
16 | 4.1 | L-p-boronophenylalanine-α,α-glucooctitol complex [alpha,alpha-glucooctitol complex] | –
17 | 3.9 | L-p-boronophenylalanine-α-glucoheptitol complex | –
